# Results reported in patent publication US10149887B2, “Peptides and peptidomimetics in combination with t cell activating and/or checkpoint inhibiting agents for cancer treatment” (CanBas Co., Ltd., priority 2015, dated 2018).
# Square brackets hold non-standard residues; d marks the D form. Peptide text beside a SMILES is read from it. dPhe(F5) = N[C@H](Cc1c(F)c(F)c(F)c(F)c1F)C(=O)O; dCha = N[C@H](CC1CCCCC1)C(=O)O
# Experiments:
# [1] = test system: Jurkat cells; experiment: G2 checkpoint abrogation, flow cytometry of bleomycin treated Jurkat cells; format: cell-based, human; details: dose with 40 μg/ml bleomycine giving detectable G2 checkpoint abrogation, 24 hours
# [2] = test system: Jurkat cells; experiment: Side effect of peptide used alone: Jurkat cell cycle disturbance (flow cytometry); format: cell-based; details: dose that produced Jurkat cell cycle disturbance, peptide alone
# Method: Cell-cycle analysis The cell cycle status of the cells treated with bleomycin or adriamcin were analyzed by flow cytometry as described by Kawabe (1997) Nature 385:454-458. In brief, two million cells were re-suspended and incubated in 200 μl Krishan's solution (0.1% Sodium citrate, 50 μg/ml PI, 20 μg/ml RNase A and 0.5% NP-40) for 1 hr at 4° C. and analyzed by a flow cytometry, FACScan™ (Beckton Dickinson, Mountain View, Calif.) with the program CELLQuest™ (Beckton Dickinson).
# (§1) The “Appearance of side effect when used alone” indicates the peptide/peptidomimetic dose that produced Jurkat cell cycle disturbance, i.e., the appearance of significant amounts of SubG1 cells (dead cells) or cells in which the DNA content of each varies more than usual. […] The “G2 abrogating dose” indicates the peptide/peptidomimetic dose with 40 μg/ml bleomycine that produced detectable G2 checkpoint abrogation activity following treatment for 24 hours. The “Appearance of side effect when used with colchicine” indicates the peptide/peptidomimetic dose with 5 μg/ml colchicine that produced Jurkat cell cycle disturbance following treatment for 24 hours.
# [3] = test system: Jurkat cells; experiment: M phase checkpoint abrogation / non specific toxicity, colchicine treated Jurkat cells; format: cell-based; details: dose with 5 μg/ml colchicine that produced Jurkat cell cycle disturbance, 24 hours
# Method: Flow cytometry analysis of M phase checkpoint abrogation by the compounds was performed using human T cell leukemia Jurkat cell line treated with colchicine (5 μg/ml or 0.5 μg/ml) and various doses of peptide/peptidomimetics for 24 hr (FIG. 12). The DNA of the cells was stained and analyzed by flow cytometry as described above.
# as §1
# A comparison between G2 checkpoint abrogating activity and non specific toxicity (M checkpoint abrogation) by CB501 was performed. In brief, Jurkat cells were treated with 40 μg/ml bleomycin or 0.5 μg/ml colchicine for G2 checkpoint abrogating activity and non specific toxicity, respectively. The DNA amount in each of the treated cells was analyzed by flow cytometry, as previously described.
# [4] = molecular target: PKA; experiment: In vitro kinase inhibition, PepTag Non-Radioactive Protein Kinase Assay; format: biochemical
# [5] = molecular target: CHK2 (Homo sapiens, UniProt O96017); experiment: as above; format: biochemical; details: purified CHK2 kinase
# Method: Since two kinases, Chk1 and Chk2, are important for G2 checkpoint mechanism, kinase inhibition analysis of both enzymes was performed. In vitro kinase inhibition analysis was performed using “PepTag® Non-Radioactive Protein Kinase Assays”, Promega, according to company's protocol, except purified CHK2 kinase was used instead of PKC.
# Chain of CHK2 (O96017 whole entry): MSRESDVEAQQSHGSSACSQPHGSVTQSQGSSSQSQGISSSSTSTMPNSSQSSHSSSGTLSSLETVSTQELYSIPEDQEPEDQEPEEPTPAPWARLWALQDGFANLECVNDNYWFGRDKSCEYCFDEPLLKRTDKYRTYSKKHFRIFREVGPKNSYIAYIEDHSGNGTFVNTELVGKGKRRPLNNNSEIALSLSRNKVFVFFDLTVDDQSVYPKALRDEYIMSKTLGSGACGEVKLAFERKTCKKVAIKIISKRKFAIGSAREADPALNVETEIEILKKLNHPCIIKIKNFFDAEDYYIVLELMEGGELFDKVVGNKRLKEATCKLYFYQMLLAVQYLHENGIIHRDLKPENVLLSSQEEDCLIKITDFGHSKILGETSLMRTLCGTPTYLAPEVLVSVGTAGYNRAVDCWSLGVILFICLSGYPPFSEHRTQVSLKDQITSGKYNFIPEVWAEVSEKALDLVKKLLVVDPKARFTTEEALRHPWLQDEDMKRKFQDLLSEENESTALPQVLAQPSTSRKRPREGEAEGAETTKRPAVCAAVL
smiles,measurement,setting,value
"N=C(N)NCCC[C@@H](NC(=O)[C@@H](CCCCN)NC(=O)[C@@H](CCCCN)NC(=O)[C@@H](CCCNC(=N)N)NC(=O)[C@@H](CCCNC(=N)N)NC(=O)[C@@H](CCC(N)=O)NC(=O)[C@@H](CCCNC(=N)N)NC(=O)[C@@H](CCCNC(=N)N)NC(=O)[C@@H](CCCNC(=N)N)NC(=O)[C@@H](CC1CCCCC1)NC(=O)[C@@H](Cc1c(F)c(F)c(F)c(F)c1F)NC(=O)[C@@H](CCCNC(=N)N)NC(=O)[C@@H](CO)NC(=O)CNC(=O)[C@@H](CO)NC(=O)[C@@H](Cc1ccc(O)cc1)NC(=O)[C@H](N)Cc1ccc(O)cc1)C(=O)NCC(=O)N[C@H](Cc1ccc(O)cc1)C(=O)O [CBP450, (d-Tyr)(d-Tyr)(d-Ser)(1-Gly)(d-Ser)(d-Arg)(d-Phe-2,3,4,5,6-F)(d-Cha)(d-Arg)(d-Arg)(d-Arg)(d-Gln)(d-Arg)(d-Arg)(d-Lys)(d-Lys)(d-Arg)(1-Gly)(d-Tyr)] (H-[dY][dY][dS]G[dS][dR][dPhe(F5)][dCha][dR][dR][dR][dQ][dR][dR][dK][dK][dR]G[dY]-OH; N-terminus and C-terminus assumed)",G2 abrogating dose,[1],≥0.78 µM
same,Appearance of side effect when used alone,[2],>6.25 µM
same,Appearance of side effect when used with Colchicine,[3],>6.25 µM
same,IC50,[4],> 400 µM
same,IC50,[5],10 µM
